Values of other authors, collected in patent publication US20060201391A1, “Compositions having sustained-release insect repellency” (priority 2005, published 2006).

Tested on: mosquitoes, stable flies and deer ticks

In the case of `C[C@H]1COC(=O)[C@@H]2[C@@H]1CC[C@@H]2C` [DHN, dihydronepetalactone], the “insect repellency compared with DEET” value is listed as “substantially equivalent to DEET”.
